Assay results from US20190022089A1, “PHARMACEUTICAL COMPOSITIONS AND DOSAGE FORMS” (Ignyta, Inc., priority 2017, published 2019).

Key:
[1] = Suitability of acids in 1:1 admixture: storage stability (appearance, HPLC); type: physicochemical; conditions: for Most abundant impurity (area %): three months storage, HPLC
Experimental: The mixtures were prepared in duplicate for each sample, and stored in open top, 4 mL glass vials at (1) 60° C./dry heat and (2) 40° C. and 75% relative humidity (RH).
All admixture samples and the control samples stored at the 60° C. and dry heat condition remained as dry powders.
The HPLC traces analyses were conducted on an Agilent 1100 LC, equipped with Agilent Diode Array Detector and Chemstation Software using the conditions found in the table below.

[2] = Comparative pharmacokinetic study of F1 and F2 formulations; type: in vivo, human; conditions: 800 mg fixed dose, 23 healthy subjects
Experimental: A comparative pharmacokinetic study in healthy, human subjects was conducted comparing a 200 mg dosage strength of pharmaceutical composition F1 (as described in Example 11) with a 200 mg dosage strength pharmaceutical composition F2 (as described in Example 10).
Pharmaceutical compositions F1 and F2, along with and lansoprazole, were administered orally with approximately 240 mL of water, according to the randomization scheme. Lansoprazole was administered as 30 mg lansoprazole delayed-release capsules.
Subjects were randomized into two groups, A and B. Periods 1 and 2 were conducted as a crossover design under fasting conditions where all subjects received F1 and F2. […] A representative summary of Periods 1, 2, and 3 and the pharmaceutical compositions subjects in groups A and B will receive in each Period is found below.
Subjects were randomized and received 3 out of 4 treatments in one of the following sequences: […] (i.e., Periods 1 and 2 were conducted as a crossover design under fasting conditions [Treatments A and B]). […] Each subject received each of the 3 assigned treatments on one occasion.
Treatment A: 30 mg lansoprazole (1×30 mg capsule), for 9 consecutive days (within ±1 hour of dosing time on Day 1), with 800 mg F1 (4×200 mg capsules) administered under fasting conditions 1.5 hours after administration of lansoprazole on Day 4. […]

[3] = Single-dose food effect study in dogs; type: in vivo; conditions: formulation that did not comprise at least one acidulant
Source text: Such food effects can cause difficulty during human testing of drugs as the fed or fasted condition of the patient can cause exposure or bioavailability of drugs to vary widely.

[4] = tested on: cancer having at least one molecular alteration in one or more of ALK, ROS1, TrkA, TrkB and TrkC; assay: Early clinical studies in humans (antitumor effects); type: in vivo; conditions: patients having various forms of cancer
TrkB = TrkB (Homo sapiens, UniProt Q16620); conditions: cited from earlier work
Sequence of TrkB (Q16620 32-822): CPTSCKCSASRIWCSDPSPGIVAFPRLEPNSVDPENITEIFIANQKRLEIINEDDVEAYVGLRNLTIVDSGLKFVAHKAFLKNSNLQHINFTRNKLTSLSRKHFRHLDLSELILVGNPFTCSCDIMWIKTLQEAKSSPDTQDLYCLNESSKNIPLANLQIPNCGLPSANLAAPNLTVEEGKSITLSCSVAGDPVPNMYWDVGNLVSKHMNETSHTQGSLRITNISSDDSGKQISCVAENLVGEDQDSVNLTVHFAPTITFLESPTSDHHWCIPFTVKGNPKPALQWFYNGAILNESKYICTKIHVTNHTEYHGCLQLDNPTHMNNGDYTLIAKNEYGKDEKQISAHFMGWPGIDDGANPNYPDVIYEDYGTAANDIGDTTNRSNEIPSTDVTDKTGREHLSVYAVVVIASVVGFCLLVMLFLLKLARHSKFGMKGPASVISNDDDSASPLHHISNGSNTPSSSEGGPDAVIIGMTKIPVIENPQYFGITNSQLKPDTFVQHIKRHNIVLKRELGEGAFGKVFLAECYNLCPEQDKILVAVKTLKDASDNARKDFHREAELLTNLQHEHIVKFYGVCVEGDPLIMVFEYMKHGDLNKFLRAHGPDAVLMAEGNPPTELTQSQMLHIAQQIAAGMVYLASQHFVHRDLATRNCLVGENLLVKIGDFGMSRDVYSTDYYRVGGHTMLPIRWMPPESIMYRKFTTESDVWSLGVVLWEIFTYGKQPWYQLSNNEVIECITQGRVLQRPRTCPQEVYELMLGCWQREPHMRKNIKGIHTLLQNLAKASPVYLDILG

TrkC = TrkC (Homo sapiens, UniProt Q16288); conditions: cited from earlier work
Sequence of TrkC (Q16288 32-839): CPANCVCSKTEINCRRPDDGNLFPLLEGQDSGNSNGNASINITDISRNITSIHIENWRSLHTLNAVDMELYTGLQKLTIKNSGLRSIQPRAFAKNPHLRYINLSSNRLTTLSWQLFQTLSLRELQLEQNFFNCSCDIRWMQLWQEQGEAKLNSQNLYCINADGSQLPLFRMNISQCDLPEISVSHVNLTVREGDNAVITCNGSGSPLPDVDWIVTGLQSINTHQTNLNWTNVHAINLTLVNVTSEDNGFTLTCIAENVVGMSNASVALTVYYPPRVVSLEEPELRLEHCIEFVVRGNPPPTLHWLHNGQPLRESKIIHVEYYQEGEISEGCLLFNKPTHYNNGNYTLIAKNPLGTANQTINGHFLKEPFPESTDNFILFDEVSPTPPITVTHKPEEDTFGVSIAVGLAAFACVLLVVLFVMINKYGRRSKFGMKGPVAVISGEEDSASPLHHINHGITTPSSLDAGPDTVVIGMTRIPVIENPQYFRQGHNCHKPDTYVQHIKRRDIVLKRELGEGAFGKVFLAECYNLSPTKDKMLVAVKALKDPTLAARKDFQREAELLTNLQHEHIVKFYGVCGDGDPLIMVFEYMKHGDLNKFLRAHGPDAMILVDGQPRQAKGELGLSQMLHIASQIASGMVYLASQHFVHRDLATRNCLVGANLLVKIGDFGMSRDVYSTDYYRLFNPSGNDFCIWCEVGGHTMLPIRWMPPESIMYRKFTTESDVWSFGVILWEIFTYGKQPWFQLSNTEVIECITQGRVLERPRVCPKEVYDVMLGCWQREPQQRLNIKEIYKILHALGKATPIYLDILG

ALK = ALK (Homo sapiens, UniProt Q9UM73); conditions: cited from earlier work
Sequence of ALK (Q9UM73 19-1620): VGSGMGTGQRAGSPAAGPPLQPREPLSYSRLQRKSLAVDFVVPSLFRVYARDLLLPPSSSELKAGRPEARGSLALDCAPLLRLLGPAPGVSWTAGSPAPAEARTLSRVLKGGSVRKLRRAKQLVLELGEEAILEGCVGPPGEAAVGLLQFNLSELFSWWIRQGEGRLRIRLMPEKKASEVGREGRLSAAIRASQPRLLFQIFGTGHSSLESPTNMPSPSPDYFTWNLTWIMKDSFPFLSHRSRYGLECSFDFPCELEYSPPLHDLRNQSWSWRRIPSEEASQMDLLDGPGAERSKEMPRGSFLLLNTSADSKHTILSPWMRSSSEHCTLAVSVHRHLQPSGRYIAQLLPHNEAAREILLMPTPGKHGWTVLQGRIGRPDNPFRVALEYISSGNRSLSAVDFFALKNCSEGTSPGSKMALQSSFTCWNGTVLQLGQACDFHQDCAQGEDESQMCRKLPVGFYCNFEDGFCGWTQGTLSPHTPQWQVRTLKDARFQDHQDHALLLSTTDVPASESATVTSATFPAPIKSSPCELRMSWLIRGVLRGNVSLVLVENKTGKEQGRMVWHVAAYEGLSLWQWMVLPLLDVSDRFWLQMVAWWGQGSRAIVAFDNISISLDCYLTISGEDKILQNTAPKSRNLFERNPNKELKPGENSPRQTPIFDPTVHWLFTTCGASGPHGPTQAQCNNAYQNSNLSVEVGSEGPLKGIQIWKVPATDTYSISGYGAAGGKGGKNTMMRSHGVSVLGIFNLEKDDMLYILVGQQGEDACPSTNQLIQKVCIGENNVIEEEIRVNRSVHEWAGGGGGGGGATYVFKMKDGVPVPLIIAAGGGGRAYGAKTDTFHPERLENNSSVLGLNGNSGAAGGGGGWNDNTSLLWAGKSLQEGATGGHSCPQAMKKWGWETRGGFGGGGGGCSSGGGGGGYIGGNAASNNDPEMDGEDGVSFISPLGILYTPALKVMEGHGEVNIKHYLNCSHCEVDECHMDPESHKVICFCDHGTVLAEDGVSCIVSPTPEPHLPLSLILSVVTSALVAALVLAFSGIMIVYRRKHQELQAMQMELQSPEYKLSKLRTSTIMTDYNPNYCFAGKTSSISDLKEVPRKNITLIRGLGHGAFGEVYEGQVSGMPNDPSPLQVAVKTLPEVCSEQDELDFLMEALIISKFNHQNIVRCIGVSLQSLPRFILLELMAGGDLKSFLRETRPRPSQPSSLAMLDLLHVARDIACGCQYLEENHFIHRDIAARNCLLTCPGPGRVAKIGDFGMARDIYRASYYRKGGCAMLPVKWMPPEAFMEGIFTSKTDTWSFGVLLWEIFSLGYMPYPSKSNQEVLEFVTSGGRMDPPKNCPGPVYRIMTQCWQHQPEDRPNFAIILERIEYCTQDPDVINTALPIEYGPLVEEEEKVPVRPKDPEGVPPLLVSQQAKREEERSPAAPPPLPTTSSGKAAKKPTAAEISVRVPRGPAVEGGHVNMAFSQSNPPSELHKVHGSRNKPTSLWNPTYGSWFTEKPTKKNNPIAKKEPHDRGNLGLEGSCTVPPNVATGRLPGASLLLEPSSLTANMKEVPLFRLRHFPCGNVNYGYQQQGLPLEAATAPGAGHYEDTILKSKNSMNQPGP

[5] = Early clinical studies in humans, formulation without acidulant (exposure); conditions: for AUC higher when taken with food: formulation without acidulant

## CN1CCN(c2ccc(C(=O)Nc3n[nH]c4ccc(Cc5cc(F)cc(F)c5)cc34)c(NC3CCOCC3)c2)CC1 [N-[5-(3,5-difluorobenzyl)-1H-indazol-3-yl]-4-(4-methyl-piperazin-1-yl)-2-(tetrahydro-pyran-4-ylamino)-benzamide]
[1]; 40° C./75% RH, listed as Control
  Most abundant impurity (area %): 0.13%
[1]; 60° C. Dry Heat
  Most abundant impurity (area %): 0.13%
[1]; 13 days of storage, 40° C. and 75% RH
  physical state observed: remained dry
[2]
  correlation of total exposure with body weight or body surface area: did not correlate with body weight or body surface area
[3]
  exposure levels, fed compared to fasting conditions: approximately 2 fold
[4]
  antitumor effects: antitumor effects
TrkB
  inhibition: potent inhibitor
TrkC
  inhibition: potent inhibitor
ALK
  inhibition: potent inhibitor
[5]; 200 mg/m^2/day
  AUC higher when taken with food: approximately 200%
[5]; 400 mg/m^2/day
  AUC higher when taken with food: ~50%
[5]; both doses (200 and 400 mg/m^2/day)
  Cmax higher with food: approximately 150%
[5]; some patients
  exposures with concomitant proton pump inhibitor drugs (PPIs), such as lansoprazole: variable
